Measurements: patent US4374245A, “8-[3-(6-Fluoro-1,2-benzisoxazol-3-yl)propyl]- 1-phenyl-1,3,8-triazaspiro[4.5]decan-4-one” (Hoechst-Roussel Pharmaceuticals Inc., priority 1982, dated 1983)
Read-outs that look alike come from different tables or passages of the source.

Legend:
[1] = system: phenyl-para-quinone induced writhes; assay: animal or person; type: in vivo, mice; conditions: Mus musculus, sc, read-out: Analgesic Activity (ED50)
[2] = system: apomorphine-induced climbing; assay: climbing mice assay (apomorphine-induced climbing, antipsychotic activity); type: in vivo, CK-1 male mice; conditions: Mus musculus, ip, read-out: Antipsychotic Activity ED50

SMILES | ED50 [1] | further results
CC(C)=CCN1CCC2(C)c3cc(O)ccc3CC1C2C (stereo not shown) [pentazocin] | 1.3 mg/kg | 
CCC(=O)O[C@](Cc1ccccc1)(c1ccccc1)[C@H](C)CN(C)C [propoxyphene] | 3.9 mg/kg | 
CCN1CCCC1CNC(=O)c1cc(S(N)(=O)=O)ccc1OC (stereo not shown) [sulpiride] |  | ED50 ([2]; mice, intraperitoneal, 30 minutes prior to apomorphine 1.5 mg/kg subcutaneously, climbing scored at 10, 20 and 30 minutes, linear regression): 4.5 mg/kg
O=C(CCCN1CCC(O)(c2ccc(Cl)cc2)CC1)c1ccc(F)cc1 [haloperidol] |  | ED50 [2]: 0.11 mg/kg
